Source: patent US20080140138A1, “Inhibition of inflammatory cytokine production by stimulation of brain muscarinic receptors” (priority 2002, published 2008)

Legend:
alpha 1 adrenergic = test: NovaScreen receptor binding panel, CNI-1493 at 10 μM; details: average of duplicate tubes
Experimental: (§1) Method of determining CNI-1493 receptor binding. CNI-1493 was tested at a single concentration (10 μM) in a panel of receptor binding assays by NovaScreen Biosciences Corporation (Hanover, Md.). Values were expressed as the percent inhibition of specific binding, and represented the average of duplicate tubes. Method of stereotactic intracerebroventricular injections. A rat model of intracerebroventricular (i.c.v.) injections was established in order to be able to directly deliver pharmacological agents into the brain of rats. This was necessary in order to separate drug effects on peripheral inflammation that occurred through central versus peripheral mechanisms. Lewis rats were anaesthetized with urethane (1 g/kg, i.p.) and xylazine (15 mg/rat, i.m. (intramuscular)). Rats were then placed in a stereotactic head frame (Stoelting, Wood Dale, Ill., USA). The incisor bar was adjusted until the plane defined by the lambda and bregma was parallel to the base plate. For i.c.v. injections the needle of a Hamilton syringe (25 μl) was positioned stereotactically above the lateral ventricle (0.2 mm and 1.5 mm posterior to bregma, 3.2 mm below the dura.) Solutions of the drugs tested were prepared in sterile endotoxin-free water, at the specified concentrations, and a 10-μl injection/rat was administered over 2 min, 1 h prior to either carrageenan injection, or to LPS.

H1 histamine = H1 histamine (Homo sapiens, UniProt P35367); test: NovaScreen receptor binding panel; details: 10 μM; <50% = marginal or no activity
Experimental: as §1

NK1 neurokinin = NK1 neurokinin (Homo sapiens, UniProt P25103); test: NovaScreen receptor binding panel; details: 10 μM; <50% = marginal or no activity
Sequence of NK1 neurokinin (P25103 whole entry): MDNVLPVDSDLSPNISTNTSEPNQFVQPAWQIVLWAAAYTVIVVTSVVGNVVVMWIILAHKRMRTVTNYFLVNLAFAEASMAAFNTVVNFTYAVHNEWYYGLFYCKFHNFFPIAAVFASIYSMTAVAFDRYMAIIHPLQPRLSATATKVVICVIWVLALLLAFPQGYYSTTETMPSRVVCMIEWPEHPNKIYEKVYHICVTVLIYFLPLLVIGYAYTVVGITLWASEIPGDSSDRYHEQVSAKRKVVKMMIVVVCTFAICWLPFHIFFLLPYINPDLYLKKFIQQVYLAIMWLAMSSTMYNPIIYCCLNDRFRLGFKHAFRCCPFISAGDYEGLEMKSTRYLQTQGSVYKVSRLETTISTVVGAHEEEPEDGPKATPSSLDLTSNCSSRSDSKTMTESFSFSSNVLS
Experimental: as §1

Type L calcium channel = test: NovaScreen receptor binding panel; details: 10 μM; <50% = marginal or no activity
Experimental: as §1

Type N calcium channel = Type N calcium channel (Homo sapiens, UniProt Q00975); test: NovaScreen receptor binding panel; details: 10 μM, average of duplicate tubes
Experimental: as §1

beta adrenergic = test: NovaScreen receptor binding panel; details: 10 μM; <50% = marginal or no activity
Experimental: as §1

chloride channel = test: NovaScreen receptor binding panel; details: 10 μM; <50% = marginal or no activity
Experimental: as §1

dopamine = test: NovaScreen receptor binding panel; details: 10 μM; <50% = marginal or no activity
Experimental: as §1

epidermal growth factor = epidermal growth factor (Homo sapiens, UniProt P00533); test: NovaScreen receptor binding panel; details: 10 μM; <50% = marginal or no activity
Sequence of epidermal growth factor (P00533 25-1210): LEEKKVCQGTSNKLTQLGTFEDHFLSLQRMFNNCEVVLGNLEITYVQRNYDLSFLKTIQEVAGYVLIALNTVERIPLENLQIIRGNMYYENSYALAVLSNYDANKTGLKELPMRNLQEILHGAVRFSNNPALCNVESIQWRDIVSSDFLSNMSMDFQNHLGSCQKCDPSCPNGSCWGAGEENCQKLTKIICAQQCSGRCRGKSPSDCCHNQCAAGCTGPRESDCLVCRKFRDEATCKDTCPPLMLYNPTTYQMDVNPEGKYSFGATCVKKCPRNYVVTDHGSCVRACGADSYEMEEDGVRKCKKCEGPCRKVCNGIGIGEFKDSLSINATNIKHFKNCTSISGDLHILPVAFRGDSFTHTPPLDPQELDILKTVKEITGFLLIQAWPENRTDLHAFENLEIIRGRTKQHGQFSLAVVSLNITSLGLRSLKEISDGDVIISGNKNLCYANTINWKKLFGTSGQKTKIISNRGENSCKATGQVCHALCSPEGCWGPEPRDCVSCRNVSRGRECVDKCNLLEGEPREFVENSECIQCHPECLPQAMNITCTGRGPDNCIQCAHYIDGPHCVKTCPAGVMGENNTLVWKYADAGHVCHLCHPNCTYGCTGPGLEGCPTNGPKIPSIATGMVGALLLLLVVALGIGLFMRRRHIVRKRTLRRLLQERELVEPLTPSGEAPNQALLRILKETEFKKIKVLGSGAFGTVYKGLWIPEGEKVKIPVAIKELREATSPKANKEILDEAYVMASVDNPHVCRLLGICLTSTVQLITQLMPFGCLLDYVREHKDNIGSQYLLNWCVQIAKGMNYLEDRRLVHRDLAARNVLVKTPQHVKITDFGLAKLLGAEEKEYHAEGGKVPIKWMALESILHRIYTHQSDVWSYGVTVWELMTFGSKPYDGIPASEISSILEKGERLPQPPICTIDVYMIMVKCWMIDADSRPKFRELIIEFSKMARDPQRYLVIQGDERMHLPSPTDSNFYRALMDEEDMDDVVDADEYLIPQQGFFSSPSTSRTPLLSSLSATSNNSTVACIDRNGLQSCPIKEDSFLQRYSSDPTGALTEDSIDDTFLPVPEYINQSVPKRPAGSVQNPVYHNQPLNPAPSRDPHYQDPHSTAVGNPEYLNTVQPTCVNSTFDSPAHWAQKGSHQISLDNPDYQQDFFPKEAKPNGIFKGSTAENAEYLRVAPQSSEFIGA
Experimental: as §1

[1] = tested on: glutamate (NMDA agonist site); test: NovaScreen receptor binding panel; details: 10 μM; <50% = marginal or no activity
Experimental: as §1

leukotriene D4 and LTD4 = test: NovaScreen receptor binding panel; details: 10 μM; <50% = marginal or no activity
Experimental: as §1

muscarinic = test: NovaScreen receptor binding panel; details: 10 μM, average of duplicate tubes
Experimental: as §1

serotonin = test: NovaScreen receptor binding panel; details: 10 μM, average of duplicate tubes
Experimental: as §1

site 1 sodium = test: NovaScreen receptor binding panel; details: 10 μM; <50% = marginal or no activity
Experimental: as §1

site 2 sodium = test: NovaScreen receptor binding panel; details: 10 μM; <50% = marginal or no activity
Experimental: as §1

thromboxane A2 = thromboxane A2 (Homo sapiens, UniProt P21731); test: NovaScreen receptor binding panel; details: 10 μM; <50% = marginal or no activity
Sequence of thromboxane A2 (P21731 whole entry): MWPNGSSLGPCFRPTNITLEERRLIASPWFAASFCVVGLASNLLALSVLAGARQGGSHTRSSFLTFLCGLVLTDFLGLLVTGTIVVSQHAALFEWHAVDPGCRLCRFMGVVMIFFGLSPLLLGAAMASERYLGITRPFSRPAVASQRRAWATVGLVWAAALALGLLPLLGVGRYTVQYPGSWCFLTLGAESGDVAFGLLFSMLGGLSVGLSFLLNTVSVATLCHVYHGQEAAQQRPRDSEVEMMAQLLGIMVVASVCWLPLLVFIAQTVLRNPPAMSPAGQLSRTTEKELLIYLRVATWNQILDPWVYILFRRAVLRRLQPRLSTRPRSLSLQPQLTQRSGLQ
Experimental: as §1

[2] = tested on: vasoactive intestinal peptide; test: NovaScreen receptor binding panel; details: 10 μM, average of duplicate tubes
Experimental: as §1

vasopressin 1 = vasopressin 1 (Homo sapiens, UniProt P37288); test: NovaScreen receptor binding panel; details: 10 μM; <50% = marginal or no activity
Sequence of vasopressin 1 (P37288 whole entry): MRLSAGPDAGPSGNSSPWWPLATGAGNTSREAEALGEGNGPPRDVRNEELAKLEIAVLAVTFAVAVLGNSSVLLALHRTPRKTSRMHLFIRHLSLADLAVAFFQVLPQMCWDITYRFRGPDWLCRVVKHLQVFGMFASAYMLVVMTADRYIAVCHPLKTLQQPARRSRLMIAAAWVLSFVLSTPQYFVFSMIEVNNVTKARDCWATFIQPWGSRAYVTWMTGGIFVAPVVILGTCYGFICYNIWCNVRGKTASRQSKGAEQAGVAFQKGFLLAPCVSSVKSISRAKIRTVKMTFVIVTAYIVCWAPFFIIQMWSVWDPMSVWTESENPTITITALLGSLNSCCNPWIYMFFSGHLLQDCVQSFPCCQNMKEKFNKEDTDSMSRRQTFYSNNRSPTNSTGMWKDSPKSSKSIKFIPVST
Experimental: as §1

[3] = tested on: voltage-insensitive potassium channel; test: NovaScreen receptor binding panel; details: 10 μM, average of duplicate tubes
Experimental: as §1

[4] = tested on: voltage-sensitive potassium channel; test: NovaScreen receptor binding panel; details: 10 μM, average of duplicate tubes
Experimental: as §1

[5] = molecular target: Muscarinic, M1 (Human recombinant) (Homo sapiens, UniProt P11229); test: NovaScreen muscarinic receptor binding panel; details: 10 μM, average of duplicate tubes
Sequence of Muscarinic, M1 (Human recombinant) (P11229 whole entry): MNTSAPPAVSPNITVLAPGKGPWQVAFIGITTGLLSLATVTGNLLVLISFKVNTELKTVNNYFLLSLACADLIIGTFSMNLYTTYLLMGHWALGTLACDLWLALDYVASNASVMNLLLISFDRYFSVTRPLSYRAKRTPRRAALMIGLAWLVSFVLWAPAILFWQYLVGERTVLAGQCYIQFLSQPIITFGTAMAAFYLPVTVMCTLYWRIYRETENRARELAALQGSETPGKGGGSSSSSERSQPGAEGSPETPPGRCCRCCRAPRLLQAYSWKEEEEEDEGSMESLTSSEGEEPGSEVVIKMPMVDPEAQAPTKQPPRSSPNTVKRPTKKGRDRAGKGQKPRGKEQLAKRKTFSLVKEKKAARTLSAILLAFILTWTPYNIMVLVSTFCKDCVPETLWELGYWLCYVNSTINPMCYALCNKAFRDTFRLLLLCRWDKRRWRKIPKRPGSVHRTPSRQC
Experimental: (§2) Method of determining muscarinic receptor subtype. CNI-1493 was tested at a single concentration (10 μM) in a panel of muscarinic receptor binding assays by NovaScreen Biosciences Corporation (Hanover, Md.). Values were expressed as the percent inhibition of specific binding, and represented the average of duplicate tubes.

Muscarinic, M1 = test: NovaScreen muscarinic receptor binding panel; details: 10 μM, average of duplicate tubes
Experimental: as §2

[6] = molecular target: Muscarinic, M2 (Human recombinant) (Homo sapiens, UniProt P08172); test: NovaScreen muscarinic receptor binding panel; details: 10 μM, average of duplicate tubes
Sequence of Muscarinic, M2 (Human recombinant) (P08172 whole entry): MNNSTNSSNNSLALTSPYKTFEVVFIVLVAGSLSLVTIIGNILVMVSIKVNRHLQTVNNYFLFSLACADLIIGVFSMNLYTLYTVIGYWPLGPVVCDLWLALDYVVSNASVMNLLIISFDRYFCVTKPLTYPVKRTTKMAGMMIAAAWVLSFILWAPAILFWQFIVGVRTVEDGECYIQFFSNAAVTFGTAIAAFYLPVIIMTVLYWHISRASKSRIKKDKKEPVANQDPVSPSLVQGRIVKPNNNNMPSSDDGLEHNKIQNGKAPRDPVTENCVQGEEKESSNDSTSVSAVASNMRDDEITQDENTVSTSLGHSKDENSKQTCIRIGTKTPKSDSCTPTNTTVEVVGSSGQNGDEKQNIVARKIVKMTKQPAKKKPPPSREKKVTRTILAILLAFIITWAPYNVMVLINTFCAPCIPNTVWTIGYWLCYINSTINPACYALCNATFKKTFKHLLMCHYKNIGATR
Experimental: as §2

Muscarinic, M2 = test: NovaScreen muscarinic receptor binding panel; details: 10 μM, average of duplicate tubes
Experimental: as §2

[7] = molecular target: T1, Muscarinic, M3 (Human recombinant) (Homo sapiens, UniProt P20309); test: NovaScreen muscarinic receptor binding panel; details: 10 μM, average of duplicate tubes
T1 construct: NovaScreen Biosciences Corporation (contract laboratory that ran the assay)
T1 sequence (P20309 whole entry): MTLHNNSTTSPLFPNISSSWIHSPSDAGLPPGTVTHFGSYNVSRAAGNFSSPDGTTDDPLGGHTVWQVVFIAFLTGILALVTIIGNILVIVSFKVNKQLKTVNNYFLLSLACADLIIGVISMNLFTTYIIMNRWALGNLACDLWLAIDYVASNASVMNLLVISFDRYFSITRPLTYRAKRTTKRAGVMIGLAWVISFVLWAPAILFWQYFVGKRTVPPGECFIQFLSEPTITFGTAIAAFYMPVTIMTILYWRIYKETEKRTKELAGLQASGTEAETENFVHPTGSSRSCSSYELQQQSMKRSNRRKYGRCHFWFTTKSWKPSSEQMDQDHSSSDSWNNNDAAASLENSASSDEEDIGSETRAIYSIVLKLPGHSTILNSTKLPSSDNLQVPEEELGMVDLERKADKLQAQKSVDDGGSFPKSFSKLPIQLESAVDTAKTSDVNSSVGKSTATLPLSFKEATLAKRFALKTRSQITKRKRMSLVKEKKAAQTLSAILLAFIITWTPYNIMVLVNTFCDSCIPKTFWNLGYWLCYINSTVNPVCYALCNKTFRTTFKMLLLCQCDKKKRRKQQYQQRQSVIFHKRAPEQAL
Experimental: as §2

Muscarinic, M3 = test: NovaScreen muscarinic receptor binding panel; details: 10 μM, average of duplicate tubes
Experimental: as §2

[8] = molecular target: T2, Muscarinic, M4 (Human recombinant) (Homo sapiens, UniProt P08173); test: NovaScreen muscarinic receptor binding panel; details: 10 μM, average of duplicate tubes
T2 construct: NovaScreen Biosciences Corporation (contract laboratory that ran the assay)
T2 sequence (P08173 whole entry): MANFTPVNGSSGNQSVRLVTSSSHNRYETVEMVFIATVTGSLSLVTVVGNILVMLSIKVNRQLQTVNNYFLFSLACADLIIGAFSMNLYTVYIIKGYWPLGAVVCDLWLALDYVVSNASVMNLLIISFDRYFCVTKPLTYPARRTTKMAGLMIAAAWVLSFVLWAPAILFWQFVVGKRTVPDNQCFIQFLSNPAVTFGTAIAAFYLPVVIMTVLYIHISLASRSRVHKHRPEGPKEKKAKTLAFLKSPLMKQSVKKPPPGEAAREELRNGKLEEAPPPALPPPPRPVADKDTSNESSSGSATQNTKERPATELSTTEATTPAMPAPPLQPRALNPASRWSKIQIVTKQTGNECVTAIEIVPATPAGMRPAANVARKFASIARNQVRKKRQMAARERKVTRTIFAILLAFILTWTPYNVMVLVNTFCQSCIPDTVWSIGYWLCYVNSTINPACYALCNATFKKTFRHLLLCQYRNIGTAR
Experimental: as §2

[9] = molecular target: T3, Muscarinic, M5 (Human recombinant) (Homo sapiens, UniProt P08912); test: NovaScreen muscarinic receptor binding panel; details: 10 μM, average of duplicate tubes
T3 construct: NovaScreen Biosciences Corporation (contract laboratory that ran the assay)
T3 sequence (P08912 whole entry): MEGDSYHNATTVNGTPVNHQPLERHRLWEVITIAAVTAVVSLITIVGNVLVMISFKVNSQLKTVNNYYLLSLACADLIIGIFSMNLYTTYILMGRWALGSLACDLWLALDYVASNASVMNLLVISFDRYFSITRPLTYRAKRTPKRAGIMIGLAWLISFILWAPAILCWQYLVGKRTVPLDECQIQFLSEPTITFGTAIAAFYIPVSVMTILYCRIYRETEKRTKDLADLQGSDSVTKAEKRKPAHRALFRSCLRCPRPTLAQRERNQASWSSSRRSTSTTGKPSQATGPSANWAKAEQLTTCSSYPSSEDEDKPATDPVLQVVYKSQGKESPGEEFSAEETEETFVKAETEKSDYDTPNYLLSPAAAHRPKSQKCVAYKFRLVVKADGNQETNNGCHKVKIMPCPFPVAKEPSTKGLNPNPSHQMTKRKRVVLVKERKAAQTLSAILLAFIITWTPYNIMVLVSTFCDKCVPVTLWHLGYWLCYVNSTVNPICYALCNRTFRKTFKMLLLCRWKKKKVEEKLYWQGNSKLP
Experimental: as §2

LPS-induced serum TNF = LPS-induced serum TNF after i.c.v. drug injection, L929 bioactivity assay; format: in vivo, Lewis rats; details: 5 μg/rat i.c.v., 1 h before LPS 15 mg/kg i.v.; blood 2 h post LPS
Experimental: Method of stereotactic intracerebroventricular injections. […] Lewis rats were anaesthetized with urethane (1 g/kg, i.p.) and xylazine (15 mg/rat, i.m. (intramuscular)). Rats were then placed in a stereotactic head frame (Stoelting, Wood Dale, Ill., USA). The incisor bar was adjusted until the plane defined by the lambda and bregma was parallel to the base plate. For i.c.v. injections the needle of a Hamilton syringe (25 μl) was positioned stereotactically above the lateral ventricle (0.2 mm and 1.5 mm posterior to bregma, 3.2 mm below the dura.) Solutions of the drugs tested were prepared in sterile endotoxin-free water, at the specified concentrations, and a 10-μl injection/rat was administered over 2 min, 1 h prior to either carrageenan injection, or to LPS.
Method of LPS injections and TNF determination. LPS (15 mg/kg, i.v.) was injected in the tail vein 1 h after drug injection. Blood was obtained 2 h post LPS injection by paraorbital bleeding. Serum TNF concentrations were determined by an L929 bioactivity assay. Method of assessing TNF by the L929 bioactivity assay. L929 cells were suspended in Dulbecco's minimal Eagle's medium (DMEM; GibcoBRL) supplemented with fetal bovine serum (10%; Hyclone) and penicillin/streptomycin (0.5%; Sigma Chemical Co.), and plated at 2×10^4 cells per well in 96-well flat-bottomed microtiter plates. After 24 h, media were respirated and replaced with medium containing cycloheximide (10 μg/ml; Sigma Chemical Co.) and the samples to be assayed/TNF standards. Plates were incubated overnight, at which time cell viability as a function of TNF concentration was assessed by the MTT assay. Absorbance values were converted to units per milliliter by comparison with a standard curve for rat TNF.
In one set of experiments, rats were injected by i.c.v. means with either saline (n=1), CNI-1493 (5 μg/rat, n=3), CNI-1493 plus atropine (5 μg/rat each), or atropine (5 μg/rat). LPS (15 mg/kg, i.v.) was given 1 h later. Blood was collected 2 h post LPS administration. Serum TNF was determined by the L929 assay.

LPS-induced TNF release = test: Conditioning (CNI-1493 with bell ringing), LPS-induced TNF release, L929 assay; format: in vivo, Mice; details: CNI-1493 2.5 mg/kg i.p. with bell ringing vs. saline with bell ringing (Group 2 vs. Group 4; p=0.22); LPS 5 mg/kg i.p.
Experimental: Mice were grouped into four groups (n=4 animals/group). The conditioning training for Groups 2-4 consisted of morning and afternoon sessions. Mice in group 2 were together taken to a room, where each mouse was injected with CNI-1493 (2.5 mg/kg, i.p.). Simultaneously with the injection, each mouse was subjected to 45 seconds of bell ringing. Group 4 mice, similar to Group 2 mice, were subjected to control conditioning, whereby mice were injected with saline, instead of CNI-1493. Group 3 mice, like Group 2 mice, were subjected to saline injections but not bell ringing. This protocol was performed over a 10 day period, on days 1-4 and 8-10. On day 11, Group 1 mice were injected with CNI-1493 (2.5 mg/kg, i.p.). Also on day 11, 30 min after the Group 1 mice injections were performed, animals in all groups were injected with LPS (5 mg/kg, i.p.). After 2 hours, the mice were euthanized via CO2 inhalation, and blood was withdrawn. Serum TNF was determined by the L929 assay.

CC(=NNC(=N)N)c1cc(NC(=O)CCCCCCCCC(=O)Nc2cc(C(C)=NNC(=N)N)cc(C(C)=NNC(=N)N)c2)cc(C(C)=NNC(=N)N)c1.Cl.Cl.Cl.Cl [CNI-1493, N,N′-bis(3,5-diacetylphenyl) decanediamide tetrakis (amidinohydrazone) tetrahydrochloride]
percent inhibition of specific binding (alpha 1 adrenergic): 89.7%
percent inhibition of receptor binding (H1 histamine): less than 50%
percent inhibition of receptor binding (NK1 neurokinin): less than 50%
percent inhibition of receptor binding (Type L calcium channel): less than 50%
percent inhibition of specific binding (Type N calcium channel): 84.2%
percent inhibition of receptor binding (beta adrenergic): less than 50%
percent inhibition of receptor binding (chloride channel): less than 50%
percent inhibition of receptor binding (dopamine): less than 50%
percent inhibition of receptor binding (epidermal growth factor): less than 50%
percent inhibition of receptor binding [1]: less than 50%
percent inhibition of receptor binding (leukotriene D4 and LTD4): less than 50%
percent inhibition of specific binding (muscarinic): 60.6%
percent inhibition of specific binding (serotonin): 75.6%
percent inhibition of receptor binding (site 1 sodium): less than 50%
percent inhibition of receptor binding (site 2 sodium): less than 50%
percent inhibition of receptor binding (thromboxane A2): less than 50%
percent inhibition of specific binding [2]: 58.5%
percent inhibition of receptor binding (vasopressin 1): less than 50%
percent inhibition of specific binding [3]: 60.2%
percent inhibition of specific binding [4]: 73.0%
Percent inhibition [5]: 72%
Percent inhibition (Muscarinic, M1): 83%
Percent inhibition [6]: 58%
Percent inhibition (Muscarinic, M2): 85%
Percent inhibition [7]: 40%
Percent inhibition (Muscarinic, M3): 9%
Percent inhibition [8]: 57%
Percent inhibition [9]: 43%
inhibition of LPS-induced serum TNF levels (LPS-induced serum TNF): more than 80%
reduction of mean LPS-induced TNF release by conditioning (LPS-induced TNF release): about 60%
